# Where a name gives a salt, the structure may show the parent alone.
# Test system: Acinetobacter baumannii ATCC17961
# Experiment: 90% growth inhibitory concentration (IC90) determination, antimicrobial susceptibility testing
# Assay type: cell-based
# Conditions: 90% growth inhibition, Iso-Sensitest broth, OD 600 nm over 16 h, 35±2° C.; read-out: ATCC 17961 IC90
# In short: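 Twofold serial dilutions (e.g. 50 to 0.097 μM final) in Iso-Sensitest broth, inoculated at ~5×10^5 CFU/ml and incubated at 35±2 °C for 16 h with OD600 read every minute. IC90 taken from growth inhibition during the logarithmic phase.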
row,Compound,IC90 [nM]
1,"CCc1cc(Nc2nccn3c(-c4ccc(OC(F)F)c(F)c4F)cnc23)ccc1C(=O)NCCC1CC[N+](C)(CC2CNC2)CC1 (stereo not drawn) [Example 91, N-[2-[1-(azetidin-3-ylmethyl)-1-methyl-piperidin-1-ium-4-ylethyl]-4-[[3-[4-(difluoromethoxy)-2,3-difluoro-phenyl]imidazo[1,2-a]pyrazin-8-yl]amino]-2-ethyl-benzamide Diformate]",834
2,"Methyl 2-[1-[1-(azetidin-3-ylmethyl)-1-methyl-piperidin-1-ium-4-carbonyl]-4-piperidyl]-2-[[4-[[3-(2,3-difluoro-4-methoxy-phenyl)imidazo[1,2-a]pyrazin-8-yl]amino]-2-ethyl-benzoyl]amino]acetate formate 2,2,2-trifluoroacetate (Mixed Salt) [Example 125]",1550
3,"CCc1cc(Nc2nccn3c(-c4ccc(OC)c(F)c4F)cnc23)ccc1C(=O)NCC[C@H](NC(=O)C1CC[N+](C)(CC2CNC2)CC1)C(=O)OC (mixture of isomers) [Example 123, Methyl (2S)-2-[[1-(azetidin-3-ylmethyl)-1-methyl-piperidin-1-ium-4-carbonyl]amino]-4-[[4-[[3-(2,3-difluoro-4-methoxy-phenyl)imidazo[1,2-a]pyrazin-8-yl]amino]-2-ethyl-benzoyl]amino]butanoate formate 2,2,2-trifluoroacetate (Mixed Salt)]",5000

# Same assay, conditions: Acinetobacter baumannii, ATCC17961, 16 h, 90% growth inhibition, Iso-Sensitest broth, OD 600 nm over 16 h, 35±2° C.; read-out: ATCC 17961 IC90
row,Compound,IC90 [nM]
1,"CCc1cc(Nc2nccn3c(-c4ccc(OC)c(F)c4F)cnc23)ccc1C(=O)NCC1CC[N+](CCO)(CC2CNC2)CC1 (stereo not drawn) [Example 141, N-[[1-(Azetidin-3-ylmethyl)-1-(2-hydroxyethyl)piperidin-1-ium-4-yl]methyl]-4-[[3-(2,3-difluoro-4-methoxy-phenyl)imidazo[1,2-a]pyrazin-8-yl]amino]-2-ethyl-benzamide 2,2,2-trifluoroacetate]",169
2,"CCc1cc(Nc2nccn3c(-c4ccc(OC(F)F)c(F)c4F)cnc23)ccc1C(=O)N1CCN(C(=O)C2CC[N+](C)(CCN)CC2)CC1 (stereo not drawn) [Example 83, [4-[1-(2-aminoethyl)-1-methyl-piperidin-1-ium-4-carbonyl]piperazin-1-yl]-[4-[[3-[4-(difluoromethoxy)-2,3-difluoro-phenyl]imidazo[1,2-a]pyrazin-8-yl]amino]-2-ethyl-phenyl]methanone bis(2,2,2-trifluoroacetate)]",127
3,"COc1ccc(-c2cnc3c(Nc4ccc(C(=O)N[C@H]5C[C@@H](NC(=O)C[N+](C)(C)C)C5)c(C)c4)nccn23)c(F)c1F [Example 72, 2-(((1s,3s)-3-(4-((3-(2,3-Difluoro-4-methoxyphenyl)imidazo[1,2-a]pyrazin-8-yl)amino)-2-methylbenzamido)cyclobutyl)amino)-N,N,N-trimethyl-2-oxoethan-1-aminium Chloride]",40.3
4,"COc1ccc(-c2cnc3c(Nc4ccc(C(=O)N[C@H]5C[C@@H](NC(=O)C[N+](C)(C)C)C5)c(Cl)c4)nccn23)c(F)c1F [Example 59, [2-[[3-[[2-Chloro-4-[[3-(2,3-difluoro-4-methoxy-phenyl)imidazo[1,2-a]pyrazin-8-yl]amino]benzoyl]amino]cyclobutyl]amino]-2-oxo-ethyl]-trimethyl-ammonium formate]",41
5,"CCc1cc(Nc2nccn3c(-c4ccc(OC)c(F)c4F)cnc23)ccc1C(=O)NCC1CC[N+](C)(CC(=O)O)CC1 (stereo not drawn) [Example 115, 2-[4-[[[4-[[3-(2,3-Difluoro-4-methoxy-phenyl)imidazo[1,2-a]pyrazin-8-yl]amino]-2-ethyl-benzoyl]amino]methyl]-1-methyl-piperidin-1-ium-1-yl]acetic acid 2,2,2-trifluoroacetate]",205
6,"C[N+](C)(C)CCN[C@H]1C[C@@H](NC(=O)c2ccc(Nc3nccn4c(-c5c[nH]nc5C(F)(F)F)cnc34)cc2Cl)C1 [Example 108, 2-[[3-[[2-chloro-4-[[3-[3-(trifluoromethyl)-1H-pyrazol-4-yl]imidazo[1,2-a]pyrazin-8-yl]amino]benzoyl]amino]cyclobutyl]amino]ethyl-trimethyl-ammonium Formate]",1590
7,"COc1ccc(-c2cnc3c(Nc4ccc(C(=O)N[C@H]5CC[C@H](NC(=O)C[N+](C)(C)C)CC5)c(C)c4)nccn23)c(F)c1F [Example 69, 2-(((1r,4r)-4-(4-((3-(2,3-Difluoro-4-methoxyphenyl)imidazo[1,2-a]pyrazin-8-yl)amino)-2-methylbenzamido)cyclohexyl)amino)-N,N,N-trimethyl-2-oxoethan-1-aminium Chloride]",263
8,"CCc1cc(Nc2nccn3c(-c4ccc(OC)c(F)c4F)cnc23)ccc1C(=O)NCCCCC[N+](C)(CCCCN)CC(=O)O (stereo not drawn) [Example 105, 4-aminobutyl-(carboxymethyl)-[5-[[4-[[3-(2,3-difluoro-4-methoxy-phenyl)imidazo[1,2-a]pyrazin-8-yl]amino]-2-ethyl-benzoyl]amino]pentyl]-methyl-ammonium Formate]",144
9,"CCc1cc(Nc2nccn3c(-c4ccc(OC)c(F)c4F)cnc23)ccc1C(=O)NCCCCC[N+](C)(CC(=O)O)CC(=O)O [Example 112, bis(carboxymethyl)-[5-[[4-[[3-(2,3-difluoro-4-methoxy-phenyl)imidazo[1,2-a]pyrazin-8-yl]amino]-2-ethyl-benzoyl]amino]pentyl]-methyl-ammonium 2,2,2-trifluoroacetate]",2560
10,"CCc1cc(Nc2nccn3c(-c4ccc(OC(F)F)c(F)c4F)cnc23)ccc1C(=O)N1CCN(C(=O)C2CC[N+](C)(CC(N)=O)CC2)CC1 (stereo not drawn) [Example 9, 1-(2-amino-2-oxoethyl)-4-(4-(4-((3-(4-(difluoromethoxy)-2,3-difluorophenyl)imidazo[1,2-a]pyrazin-8-yl)amino)-2-ethylbenzoyl)piperazine-1-carbonyl)-1-methylpiperidin-1-ium Formate]",63.5
11,"CCc1cc(Nc2nccn3c(-c4ccc(OC)c(F)c4F)cnc23)ccc1C(=O)NCCCNC(=O)CC1CC[N+](C)(CC2CNC2)CC1 (stereo not drawn) [Example 131, N-[3-[[2-[1-(Azetidin-3-ylmethyl)-1-methyl-piperidin-1-ium-4-yl]acetyl]amino]propyl]-4-[[3-(2,3-difluoro-4-methoxy-phenyl)imidazo[1,2-a]pyrazin-8-yl]amino]-2-ethyl-benzamide bis(2,2,2-trifluoroacetate)]",114
12,"Cc1cc(Nc2nccn3c(-c4ccc(OC(F)F)cc4)cnc23)ccc1C(=O)N(C)CCC1CC[N+](C)(CCCC(=O)O)CC1 (stereo not drawn) [Example 57, 4-[4-[2-[[4-[[3-[4-(Difluoromethoxy)phenyl]imidazo[1,2-a]pyrazin-8-yl]amino]-2-methylbenzoyl]-methylamino]ethyl]-1-methylpiperidin-1-ium-1-yl]butanoic acid Hydrochloride]",2180
13,"CCc1cc(Nc2nccn3c(-c4ccc(OC(F)F)c(F)c4F)cnc23)ccc1C(=O)NCCC1CC[N+](C)(CC2CNC2)CC1 (stereo not drawn) [Example 10, N-[2-[1-(azetidin-3-ylmethyl)-1-methyl-piperidin-1-ium-4-yl]ethyl]-4-[[3-[4-(difluoromethoxy)-2,3-difluoro-phenyl]imidazo[1,2-a]pyrazin-8-yl]amino]-2-ethyl-benzamide Diformate]",157
14,"CCc1cc(Nc2nccn3c(-c4ccc(OC)c(F)c4F)cnc23)ccc1C(=O)NCCCNC(=O)C[C@@H]1CC[N+](C)(CC2CNC2)C1 (stereo partly drawn) [Example 130, N-[3-[[2-[(3S)-1-(Azetidin-3-ylmethyl)-1-methyl-pyrrolidin-1-ium-3-yl]acetyl]amino]propyl]-4-[[3-(2,3-difluoro-4-methoxy-phenyl)imidazo[1,2-a]pyrazin-8-yl]amino]-2-ethyl-benzamide bis(2,2,2-trifluoroacetate)]",108
15,"CCc1cc(Nc2nccn3c(-c4ccc(OC)c(F)c4F)cnc23)ccc1C(=O)NCC1CC[N+](C)(CC2CC[N+](C)(C)C2)CC1 (stereo not drawn) [Example 135, 4-[[3-(2,3-Difluoro-4-methoxy-phenyl)imidazo[1,2-a]pyrazin-8-yl]amino]-N-[[1-[(1,1-dimethylpyrrolidin-1-ium-3-yl)methyl]-1-methyl-piperidin-1-ium-4-yl]methyl]-2-ethyl-benzamide Diformate]",479
16,"CCc1cc(Nc2nccn3c(-c4ccc(OC)c(F)c4F)cnc23)ccc1C(=O)NC[C@H](NC(=O)C1CC[N+](C)(CC2CNC2)CC1)C(=O)OC (mixture of isomers) [Example 120, Methyl (2S)-2-[[1-(azetidin-3-ylmethyl)-1-methyl-piperidin-1-ium-4-carbonyl]amino]-3-[[4-[[3-(2,3-difluoro-4-methoxy-phenyl)imidazo[1,2-a]pyrazin-8-yl]amino]-2-ethyl-benzoyl]amino]propanoate formate 2,2,2-trifluoroacetate (Mixed Salt)]",682
17,"CCc1cc(Nc2nccn3c(-c4ccc(OC(F)F)c(F)c4F)cnc23)ccc1C(=O)NCCCCC[N+](C)(C)CC1CNC1 [Example 96, Azetidin-3-ylmethyl-[5-[[4-[[3-[4-(difluoromethoxy)-2,3-difluoro-phenyl]imidazo[1,2-a]pyrazin-8-yl]amino]-2-ethyl-benzoyl]amino]pentyl]-dimethyl-ammonium bis(2,2,2-trifluoroacetate)]",171

# Same assay, conditions: Acinetobacter baumannii, ATCC17961, 16 h, read-out: ATCC 17961 IC90
row,Compound,IC90 [nM]
1,"CCc1cc(Nc2nccn3c(-c4ccc(OC(F)F)c(F)c4F)cnc23)ccc1C(=O)NCC1CC[N+](C)(CC2CNC2)CC1 (stereo not drawn) [Example 87, N-[[1-(azetidin-3-ylmethyl)-1-methyl-piperidin-1-ium-4-yl]methyl]-4-[[3-[4-(difluoromethoxy)-2,3-difluoro-phenyl]imidazo[1,2-a]pyrazin-8-yl]amino]-2-ethyl-benzamide Diformate]",318

# — patent publication US20230141600A1, “IMIDAZOPYRAZINE DERIVATIVES” (priority 2020, published 2023)
